Data from US20110034472A1, “Novel Compounds for Treatment of Cancer and Disorders Associated With Angiogenesis Function” (UNIVERSITY OF SOUTHERN CALIFORNIA, priority 2004, published 2011).

Experiments:
[1] = tested on: SKOV3 ovarian cancer cells; assay: Sensitivity of various cancer cells to SC144, SKOV3; assay type: cell-based; details: Homo sapiens, SK-OV-3
Description: (§1) The studies were expanded to other cell lines. […] Subnanomolar to low nanomolar potency was also observed in HCT-116 and HT29 colon cancer cell lines (Table 2).

UO-31 renal cancer cells = assay: Sensitivity of various cancer cells to SC144, UO-31; assay type: cell-based; details: Homo sapiens
Description: as §1

Question: Which results are given for O=C(NNc1nc2cc(F)ccc2n2cccc12)c1cnccn1 [SC144, Pyrazine-2-carboxylic acid N′-(7-fluoro-pyrrolo[1,2-a]quinoxalin-4-yl)-hydrazide]?
Answer: CC50 [1]: 120 nM; CC50 (UO-31 renal cancer cells): 300 nM
